Results on five molecules are retold here after US4092415A, “Microorganism combatting quinoxaline-di-N-oxide carboxamides” (Ciba-Geigy Corporation, priority 1976, dated 1978).

Common to all, as to format: in vivo
Assay [1] relates to Staph. aureus Smith. Put plainly: Intraperitoneally infected white mice, Staph. aureus Smith. To be noted: Staphylococcus aureus, with infection and 3 hours later, read-out: average effective dose/confidence interval. How it is done:
(§1) In tests carried out on white mice, the intraperitoneally infected animals are treated subcutaneously and perorally as follows:
(§2) The administration is effected in doses of 1 mg, 3 mg, 10 mg, 30 mg, 100 mg or 300 mg of active substance per kg of body weight initially simultaneously with the infection and a second time 3 hours later.

Assay [2] has as its system simultaneously infected hens. Put plainly: Single peroral administration to simultaneously infected hens. To be noted: Gallus gallus, po, single peroral administration by probang, simultaneous with infection. From the text: Single peroral administration by means of a probang to
simultaneously infected hens in mg of active substance

For assay [3], the system named is E. coli 205. The experiment in a line: Intraperitoneally infected white mice, E. coli 205. To be noted: Escherichia coli, with infection and 3 hours later, read-out: average effective dose/confidence interval. The protocol: as §1, §2
Assay [4] deals with Past. mult. The experiment in a line: Intraperitoneally infected white mice, Past. mult. The following applies: Mus musculus, with infection and 3 hours later, read-out: average effective dose/confidence interval. How it is done: as §1, §2
Assay [5] deals with Strept. pyog. Aronson. Put plainly: Intraperitoneally infected white mice, Strept. pyog. Aronson. To be noted: Mus musculus; for ED50: with infection and 3 hours later, read-out: average effective dose/confidence interval; for ED20: value marked (ED 20). How it is done:
as §1, §2

For assay [6], the system named is Salm. ty.-m. The experiment in a line: Intraperitoneally infected white mice, Salm. ty.-m. To be noted: Mus musculus, with infection and 3 hours later, read-out: average effective dose/confidence interval. How it is done: as §1, §2
The subject of assay [7] is Pseud. aerug. The experiment in a line: Intraperitoneally infected white mice, Pseud. aerug. To be noted: Mus musculus, with infection and 3 hours later, read-out: average effective dose/confidence interval. The protocol: as §1, §2
The subject of assay [8] is piglets. Put plainly: Demonstration of growth: piglets fed 28 days with medicated feed. To be noted: 50 ppm in feed. From the text:
A group of eight piglets (four .male. and four .female.) was fed for 28 days with a normal feed containing 17.6% of raw protein and 3.4% of crude fibres and to which 50 ppm of 1,4-dioxido-3-methyl-quinoxaline(2)-N-(2'-cyanoethyl)-carboxamide (Example 1) had been added. The average initial weight of the individual test animals was approx. 9 kg at the start of the test. At the conclusion of the test the animals were weighed individually and the feed consumption determined in groups. For control purposes, a parallel test following the same procedure was carried out using the same feed without the addition of active substance.

Read-outs that look alike come from different tables or passages of the source.

`Cc1c(C(=O)NCC#N)[n+]([O-])c2ccccc2[n+]1[O-]` [A, 1,4-dioxido-3-methyl-quinoxaline(2)-N-(cyanomethyl)-carboxamide]: the ED50 in assay [1] (2 × po.) stood at 12 mg/kg; in assay [1] (2 × sc.), 10 mg/kg; in assay [2], 2 mg/kg; in assay [3] (2 × po.), 3.5 mg/kg; in assay [3] (2 × sc.) it was 3 mg/kg; in assay [4] (2 × po.), 3.4 mg/kg. The ED50 in assay [4] (2 × sc.) amounted to 3 mg/kg; in assay [5] (2 × po.) it was 265 mg/kg; in assay [6] (2 × po.) it was 4.2 mg/kg; in assay [6] (2 × sc.), 3.9 mg/kg; in assay [7] (2 × po.) it was 75 mg/kg; in assay [7] (2 × sc.) it was 120 mg/kg. Besides, the ED20 in assay [5] (2 × sc.) came to 205 mg/kg.
On to `Cc1c(C(=O)NCCO)[n+]([O-])c2ccccc2[n+]1[O-]` [D, reference compound], for which the ED50 in assay [1] (2 × po.) stood at 60 mg/kg; in assay [1] (2 × sc.), 40 mg/kg; in assay [2] it was 5.3 mg/kg; in assay [3] (2 × po.) it was 10 mg/kg; in assay [3] (2 × sc.), 9 mg/kg; in assay [4] (2 × po.) it was 15 mg/kg. The ED50 in assay [4] (2 × sc.) stood at 14 mg/kg; in assay [5] (2 × po.), 410 mg/kg; in assay [5] (2 × sc.) it was 425 mg/kg; in assay [6] (2 × po.), 13 mg/kg; in assay [6] (2 × sc.), 10 mg/kg; in assay [7] (2 × po.) it was 490 mg/kg. In addition, the ED50 in assay [7] (2 × sc.) turned out to be 210 mg/kg.
For `Cc1c(C(=O)NC(C)(C)C#N)[n+]([O-])c2ccccc2[n+]1[O-]` [B], the ED50 in assay [1] (2 × po.) turned out to be 18 mg/kg; in assay [1] (2 × sc.), 16 mg/kg; in assay [3] (2 × po.), 18 mg/kg; in assay [3] (2 × sc.) it was 11 mg/kg; in assay [4] (2 × po.) it was 5.1 mg/kg; in assay [4] (2 × sc.), 3.2 mg/kg. Moreover, the ED50 was 25 mg/kg in assay [6] (2 × po.), 11 mg/kg in assay [6] (2 × sc.), greater than 300 mg/kg in assay [7] (2 × po.) and greater than 100 mg/kg in assay [7] (2 × sc.). For the same molecule, the figures for the ED20 in assay [5] (2 × po.) and in assay [5] (2 × sc.) were 170 mg/kg and 140 mg/kg, respectively.
For `Cc1c(C(=O)NCCC#N)[n+]([O-])c2ccccc2[n+]1[O-]` [C, 1,4-Dioxido-3-methyl-quinoxaline(2)-N-(2'-cyanoethyl)-carboxamide], the ED50 in assay [1] (2 × po.) turned out to be 27 mg/kg; in assay [1] (2 × sc.), 18 mg/kg; in assay [3] (2 × po.) it was 6.6 mg/kg; in assay [3] (2 × sc.), 5.5 mg/kg; in assay [4] (2 × po.), 3.9 mg/kg; in assay [4] (2 × sc.), 5.5 mg/kg. Also, the ED50 in assay [5] (2 × po.) is 275 mg/kg; in assay [5] (2 × sc.), 400 mg/kg; in assay [6] (2 × po.), 11 mg/kg; in assay [6] (2 × sc.) it was 10 mg/kg; in assay [7] (2 × po.), 235 mg/kg; in assay [7] (2 × sc.) it was 105 mg/kg. In assay [8] (average values, control 1.90), the “Feed consumption index abs.” value is 1.69 kg of feed consumed per kg of. For the same molecule, in assay [8] (average values, control 231 g), the “Daily growth rate abs.” value is 305 g. Also, in assay [8] (control 100%), the “Daily growth rate rel.” value turned out to be 132%. Moreover, the “Feed consumption index rel.” value in assay [8] (control 100%) is recorded as 88,9%.
Turning to `COC(=O)N/N=C/c1c[n+]([O-])c2ccccc2[n+]1[O-]` [E, reference compound], the ED50 in assay [1] (2 × po.) is 35 mg/kg; in assay [1] (2 × sc.), 2500 mg/kg; in assay [2] it was 9 mg/kg; in assay [3] (2 × po.), 30 mg/kg; in assay [3] (2 × sc.), 300 mg/kg; in assay [4] (2 × po.) it was roughly 30 mg/kg. The ED50 is roughly 100 mg/kg in assay [4] (2 × sc.), 25 mg/kg in assay [6] (2 × po.) and 140 mg/kg in assay [6] (2 × sc.).
